Values quoted from earlier work in PMC9516332 (Frontiers in Oncology, 2022).

Legend:
[1] = target: T1, panel of 255 wild-type kinases (Homo sapiens, UniProt O14757); details: CHK1 kinase assay; 1 µmol/L single concentration; ref DOI: 10.1371/journal.pone.0092146; cited from earlier work
T1 sequence (O14757 1-476): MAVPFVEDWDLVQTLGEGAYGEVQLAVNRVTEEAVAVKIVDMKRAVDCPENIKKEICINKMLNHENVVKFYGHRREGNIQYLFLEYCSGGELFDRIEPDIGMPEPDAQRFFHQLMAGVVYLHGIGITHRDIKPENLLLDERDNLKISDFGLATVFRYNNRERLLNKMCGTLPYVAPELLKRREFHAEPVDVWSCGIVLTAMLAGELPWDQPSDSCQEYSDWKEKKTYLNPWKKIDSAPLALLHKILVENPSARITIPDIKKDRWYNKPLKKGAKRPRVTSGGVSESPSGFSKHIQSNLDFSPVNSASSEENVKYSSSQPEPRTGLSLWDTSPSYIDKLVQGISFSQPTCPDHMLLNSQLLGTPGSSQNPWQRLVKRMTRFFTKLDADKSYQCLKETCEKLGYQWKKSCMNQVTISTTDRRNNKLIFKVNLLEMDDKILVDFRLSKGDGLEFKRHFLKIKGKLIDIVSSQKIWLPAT

[2] = target: T2, panel of 255 wild-type kinases (Homo sapiens, UniProt O43781); details: kinase DYRK3; 1 µmol/L single concentration; ref DOI: 10.1371/journal.pone.0092146; cited from earlier work
T2 sequence (O43781 1-588): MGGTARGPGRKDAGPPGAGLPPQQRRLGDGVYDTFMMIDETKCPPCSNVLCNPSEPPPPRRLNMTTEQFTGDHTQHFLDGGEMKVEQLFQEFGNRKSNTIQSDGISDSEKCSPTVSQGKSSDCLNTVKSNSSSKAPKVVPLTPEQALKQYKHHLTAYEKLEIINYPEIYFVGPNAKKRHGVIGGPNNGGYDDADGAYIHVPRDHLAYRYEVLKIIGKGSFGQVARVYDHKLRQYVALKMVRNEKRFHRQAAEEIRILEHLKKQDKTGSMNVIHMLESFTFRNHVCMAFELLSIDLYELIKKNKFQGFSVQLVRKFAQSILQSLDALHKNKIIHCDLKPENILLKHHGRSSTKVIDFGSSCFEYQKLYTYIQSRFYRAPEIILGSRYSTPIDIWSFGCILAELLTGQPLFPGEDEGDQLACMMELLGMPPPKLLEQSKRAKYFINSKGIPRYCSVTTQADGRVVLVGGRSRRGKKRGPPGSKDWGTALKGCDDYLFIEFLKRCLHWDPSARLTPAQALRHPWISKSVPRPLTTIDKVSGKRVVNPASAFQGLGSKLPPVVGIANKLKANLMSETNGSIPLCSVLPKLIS

[3] = target: panel of 255 wild-type kinases (Homo sapiens, UniProt P08581); details: MET; 1 µmol/L single concentration; ref DOI: 10.1371/journal.pone.0092146; cited from earlier work
[4] = target: panel of 255 wild-type kinases (Homo sapiens, UniProt P43405); details: kinase SYK; 1 µmol/L single concentration; ref DOI: 10.1371/journal.pone.0092146; cited from earlier work
[5] = target: panel of 255 wild-type kinases (Homo sapiens, UniProt P49841); details: kinase GSK3β; 1 µmol/L single concentration; ref DOI: 10.1371/journal.pone.0092146; cited from earlier work
[6] = target: panel of 255 wild-type kinases (Homo sapiens, UniProt P53350); details: kinase PLK1; 1 µmol/L single concentration; ref DOI: 10.1371/journal.pone.0092146; cited from earlier work
[7] = target: panel of 255 wild-type kinases (Homo sapiens, UniProt Q04759); details: kinase PKCθ; 1 µmol/L single concentration; ref DOI: 10.1371/journal.pone.0092146; cited from earlier work
[8] = target: panel of 255 wild-type kinases (Homo sapiens, UniProt Q06187); details: BTK kinase assay; 1 µmol/L single concentration; ref DOI: 10.1371/journal.pone.0092146; cited from earlier work
[9] = target: panel of 255 wild-type kinases (Homo sapiens, UniProt Q13554); details: CaMK2β kinase assay; 1 µmol/L single concentration; ref DOI: 10.1371/journal.pone.0092146; cited from earlier work
[10] = target: T3, panel of 255 wild-type kinases (Homo sapiens, UniProt Q8IW41); details: MAPKAPK5; 1 µmol/L single concentration; ref DOI: 10.1371/journal.pone.0092146; cited from earlier work
T3 sequence (Q8IW41 1-473): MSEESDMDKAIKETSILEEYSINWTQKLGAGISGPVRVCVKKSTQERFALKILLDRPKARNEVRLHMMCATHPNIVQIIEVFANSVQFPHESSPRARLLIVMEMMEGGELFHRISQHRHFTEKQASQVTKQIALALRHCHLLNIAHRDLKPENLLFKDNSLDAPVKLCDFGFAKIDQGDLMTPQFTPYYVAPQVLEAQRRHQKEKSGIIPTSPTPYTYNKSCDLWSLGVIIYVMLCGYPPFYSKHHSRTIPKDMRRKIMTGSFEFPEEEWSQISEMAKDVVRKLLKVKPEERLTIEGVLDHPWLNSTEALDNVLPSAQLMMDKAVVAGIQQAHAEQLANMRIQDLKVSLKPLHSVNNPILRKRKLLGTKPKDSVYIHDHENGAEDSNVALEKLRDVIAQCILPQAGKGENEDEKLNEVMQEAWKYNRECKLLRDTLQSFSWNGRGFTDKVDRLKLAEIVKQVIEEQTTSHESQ

[11] = target: panel of 255 wild-type kinases (Homo sapiens, UniProt Q9UM73); details: ALK kinase assay; 1 µmol/L single concentration; ref DOI: 10.1371/journal.pone.0092146; cited from earlier work

## CC(=O)Nc1cccc(-n2c(=O)n(C3CC3)c(=O)c3c(Nc4ccc(I)cc4F)n(C)c(=O)c(C)c32)c1 [trametinib]
[1]
  %-inhibition CHK1: -0.719%
[2]
  %-inhibition at 1 µmol/L, DYRK3: -10%
[3]
  %-inhibition, MET: -2.41%
[4]
  %-inhibition at 1 µmol/L, SYK: -5%
[5]
  %-inhibition at 1 µmol/L, GSK3β: -15%
[6]
  %-inhibition at 1 µmol/L, PLK1: -9%
[7]
  %-inhibition at 1 µmol/L, PKCθ: 0.388%
[8]
  %-inhibition BTK: 18%
[9]
  %-inhibition CaMK2β: 0.738%
[10]
  %-inhibition, MAPKAPK5: -2.22%
[11]
  %-inhibition ALK: -2.82%

## CCCS(=O)(=O)Nc1ccc(F)c(C(=O)c2c[nH]c3ncc(-c4ccc(Cl)cc4)cc23)c1F [vemurafenib]
[1]
  %-inhibition CHK1: 4%
[2]
  %-inhibition at 1 µmol/L, DYRK3: 5%
[3]
  %-inhibition, MET: 3.67%
[4]
  %-inhibition at 1 µmol/L, SYK: -3.77%
[5]
  %-inhibition at 1 µmol/L, GSK3β: 8%
[6]
  %-inhibition at 1 µmol/L, PLK1: -4%
[7]
  %-inhibition at 1 µmol/L, PKCθ: -3%
[8]
  %-inhibition BTK: 2%
[9]
  %-inhibition CaMK2β: -6.64%
[10]
  %-inhibition, MAPKAPK5: 12%
[11]
  %-inhibition ALK: 1.14%
